What was measured:
[1] = system: CRE-BAG2 cells expressing β-galactosidase; assay: Cellular retention of coumarin galactopyranoside substrates (Example 17); type: cell-based; details: 10 μM, hypotonic shock loading, 37° C., excitation 360±20 nm, emission >400 nm
Method: CRE-BAG2 cells are prepared as described in Example 15.
Staining solutions of 4-methylcoumarin β-D-galactopyranoside, 4-chloromethylcoumarin β-D-galactopyranoside and 4-trifluoromethylcoumarin β-D-galactopyranoside, respectively, are prepared that are 10 μM in concentration. Each galactopyranoside substrate is loaded into CRE-BAG2 cells expressing β-galactosidase using brief hypotonic shock for less than five minutes. Cells are then washed free of extracellular substrate and incubated for three hours in fresh culture medium at 37° C. Each cell sample is then illuminated at 360±20 nm, and the fluorescence is observed at >400 nm. Fluorescence intensity data is acquired using a cooled CCD camera and subsequently stored in digital format.

[2] = system: Glutathione Transferase from Equine Liver; assay: Glutathione transferase activity in vitro (Example 14); type: biochemical; details: room temperature, with GSH
Method: Activity of glutathione transferase in vitro can be assayed essentially by the method of Grants and Matsumura (INSECT PHYSIOL. 18 (6), 615 (1988)). • 1) Reagents: The stock reagents required are: 1) 5-Chloromethylfluorescein (CMF) substrate (Example 1) 10 mg/mL in DMF, diluted 1:10 in reaction buffer to 1 mg/mL; 2). Reaction buffer 100 mM potassium phosphate, 15% glycerol pH 6.8; 3). Glutathione (GSH) 155 mM in 20 mM TRIS, 2 mM DTT, 15% glycerol pH 7.8; 4). Glutathione Transferase from Equine Liver (Sigma #G 6511) 1.0 mg/mL in reaction buffer. • 2) Assay. The reaction mixture consists of 0.7 mL reaction buffer, 0.1 mL GSH, 0.1 mL substrate and 0.1 mL enzyme. The background is measured and subtracted by using 0.1 mL of the reaction buffer instead of the enzyme. Enzymatic activity can be detected at less than 5 minutes at room temperature. Product formation can be detected by separation of the polar product from the less polar substrate by a suitable means such as thin layer chromatography or high performance liquid chromatography. For instance, product accumulation can be detected by thin layer chromatography using A) 15:85 methanol:chloroform or B) 2:5:15 NH4OH:isopropyl alcohol:methanol. […] Alternatively the fluorescence of the product is determined using a fluorometer versus a fluorescein standard with excitation at 492 and emission measured at 515 nm. […]

lacZ positive cells = assay: Dye retention after paraformaldehyde fixation (Example 11); type: cell-based; details: 3.7% paraformaldehyde fixation, Hoechst filter set
Method: The cells grown on coverslips and incubated with either Cl-MUG or MUG are immersed in 3.7% paraformaldehyde in 80 mM Pipes buffer, pH 6.5 for 4 minutes to allow the paraformaldehyde to penetrate the cells. The cells are then transferred to 3.7% paraformaldehyde in PBS. After 6 minutes, the cells are washed three times with PBS buffer for ten minutes. The coverslips are put on the slides and sealed.
The fixed cells are examined for their fluorescence under a Zeiss microscope equipped with a Hoechst filter set.

[3] = system: NIH/3T3 cells and CRE BAG 2 cells; assay: Cytotoxicity of substrate in working medium (Example 11); type: cell-based
Method: (§1) NIH/3T3 cells (lacZ negative) and CRE BAG 2 cells (3T3 cells transformed with a retrovirus containing lacZ gene) are employed for cellular assays. Both cell lines can be obtained from American Type Culture Collection Co., Rockville, Md. The cells are grown in a humidified atmosphere of 5% CO2 in Dulbecco's modified Eagle's medium supplemented with 10% calf serum, 50 μg/mL gentamicin, 300 μg/mL L-glutamine and 10 mM HEPES pH 7.4.
(§2) 100 μL of stock solution is added to 10 mL of fresh culture medium to prepare a “working medium” containing 100 μM Cl-MUG. This medium is filter-sterilized by passing through an Acrodisc™ filter (0.45 μm pore size). A working medium containing MUG is prepared in the same way.
Fluorescence can be detected in the cells for at least 24 hours following washing of the cells with fresh medium.

[4] = system: lacZ positive CRE BAG 2 cells; assay: Staining of living lacZ positive cells with galactosidase substrate (Example 11); type: cell-based
Method: as §1
(§3) 4-Chloromethylumbelliferyl β-D-galactoside (Cl-MUG) (Example 3) is dissolved in DMSO to get a 10 mM stock solution. A 10 mM stock solution of 4-methylumbelliferyl β-D-galactoside (MUG) (Molecular Probes) is also made in DMSO as a control. The stock solutions are kept sealed in brown reagent bottles and stored at −20° C.
as §2
(§4) Cells grown on coverslips are transferred to the working medium and incubated at 37° C. under normal conditions. Cells are examined at the desired time for their fluorescence under a Zeiss microscope equipped with a Hoechst filter set (EX […]/EM 480 nm). […] After 6 hours continuous incubation, the fluorescence intensity of stained CRE BAG 2 cells reaches its highest level.

[5] = system: NIH/3T3 cells (lacZ negative); assay: Staining of living lacZ negative cells with galactosidase substrate (Example 11); type: cell-based; details: 100 μM in working medium, 60 minutes at 37° C., washed with fresh medium
Method: as §1, §3, §2, §4

[6] = system: lacZ positive CRE BAG 2 cells; assay: Cellular retention after loading by hypoosmotic shock (Example 12); type: cell-based; details: after incubation for 4 hours, 2 mM
Method: 5-Chloromethylfluorescein di-β-D-galactoside (CMFDG) (Example 1) is dissolved in DMSO to get 20 mM stock solution. A 40 mM stock solution offluorescein di-β-D-galaetoside (FDG) (Molecular Probes) is also made in DMSO as a control. The stock solutions are kept sealed in brown reagent bottles and stored at −20° C.
• (A) FCS-PBS Solution: Phosphate buffered saline (GIBCO), 4% fetal calf serum, 10 mM HEPES, pH 7.2 • (B) Staining Solution: CMFDG: 200 μL of stock solution is diluted with distilled water to 4 mL to get a 1 mM staining solution. FDG: 400 μL of stock solution is diluted to 4 mL with distilled water to get a 4 mM staining solution. 4. Staining and Examination of Cells:
Cells grown on coverslips are transferred to a Petri dish containing 3 mL of FCS-PBS solution and then incubated at 37° C. for 10 minutes. 3 mL of prewarmed (37° C.) 1 mM CMFDG staining solution is added to give a final dye concentration of 0.5 mM The solutions are mixed rapidly. The cells are incubated at 37° C. for exactly one minute. To stop the loading, the cells are transferred to a 1.8 mL of ice-cold FCS-PBS solution. FDG is loaded into cells by using the same procedure except that the final dye concentrations is 2 mM. Cells are then incubated under normal culture conditions to examine the dye retention. Cells are examined without washing at the desired time for their fluorescence under a Zeiss microscope equipped with a FITC filter set (EX 485 nm/EM 530 nm).

NIH/3T3 cells = assay: Cellular retention of rhodamine 110 peptidase substrates (Example 16); type: cell-based; details: 25 μM; for leakage of enzyme reaction product after staining: 30 minutes at 37° C.; for fluorescence after washing and several hours in fresh media: fluorescein long-pass filter set
Method: NIH/3T3 cells are prepared as described in Example 15.
Staining solutions of bis-(L-leucine)-rhodamine 110 and L-leucine-rhodamine 110-p-chloromethylbenzamide (Example 9), respectively, are prepared that are 25 μM in concentration. Equivalent NIH/3T3 cells are incubated with the same amount of peptidase substrate for thirty (30) minutes at 37° C. in Modified Tyrode's buffered saline (135 mM NaCl, 5 mM KCl, 1 mM MgCl2, 1.8 mM CaCl2, 10 mM NaHEPES, 5.6 mM glucose, pH 7.5, plus 0.1% bovine serum albumin).
The cells are washed and placed in fresh media for several hours.

[7] = 100 μM working medium for 24 hours

O=c1cc(C(F)(F)F)c2ccc(O[C@@H]3O[C@H](CO)[C@H](O)[C@H](O)[C@H]3O)cc2o1 [4-trifluoromethylcoumarin β-D-galactopyranoside]
fluorescence intensity after three hours in fresh culture medium [1]: low fluorescent intensity

O=C1OC2(c3ccc(O)cc3Oc3cc(O)ccc32)c2ccc(CCl)cc21 [CMF, 5-chloromethylfluorescein]
time at which enzymatic activity can be detected [2]: less than 5 minutes

O=c1cc(CCl)c2ccc(O[C@@H]3O[C@H](CO)[C@H](O)[C@H](O)[C@H]3O)cc2o1 [Cl-MUG, 7-(β-D-galactopyranosyloxy)-4-chloromethylcoumarin]
fluorescence of fixed cells (lacZ positive cells): still brightly fluorescent
cell morphology [3, 7]: morphologically normal
population doubling time versus cells in substrate-free medium [3, 7]: same population doubling time
time fluorescence can be detected in the cells following washing with fresh medium ([3]; after incubation in working medium): at least 24 hours
cytotoxicity ([3]; either type of cell): no cytotoxicity
subculture after preincubation ([3]; preincubated in working medium for 6 hours, subcultured in fresh medium): second generation of cells that is normal
fluorescence of cells under microscope ([4]; 100 μM in working medium, 60 minutes at 37° C., washed with fresh medium): fluorescence is observed in the cytoplasmic area
continuous incubation time at which fluorescence intensity reaches its highest level ([4]; 100 μM working medium): 6 h
fluorescence intensity after three hours in fresh culture medium [1]: brightly fluorescent
fluorescence of cells under microscope [5]: not in 3T3 cells

O=C1OC2(c3ccc(O[C@@H]4O[C@H](CO)[C@H](O)[C@H](O)[C@H]4O)cc3Oc3cc(O[C@@H]4O[C@H](CO)[C@H](O)[C@H](O)[C@H]4O)ccc32)c2ccccc21 [FDG, fluorescein di-β-D-galaetoside, reference compound]
fluorescence of stained cells after 4 hours [6]: very dim with high background fluorescence in the medium

CC(C)CC(N)C(=O)Nc1ccc2c(c1)Oc1cc(NC(=O)c3ccc(CCl)cc3)ccc1C21OC(=O)c2ccccc21 [L-leucine-rhodamine 110-p-chloromethylbenzamide]
leakage of enzyme reaction product after staining (NIH/3T3 cells): significantly less leakage
fluorescence after washing and several hours in fresh media (NIH/3T3 cells): bright, well-defined staining pattern
melting point: 275 °C (dec.)

Cc1cc(=O)oc2cc(O[C@@H]3O[C@H](CO)[C@H](O)[C@H](O)[C@H]3O)ccc12 [MUG, 4-methylumbelliferyl β-D-galactoside, reference compound]
fluorescence of fixed cells (lacZ positive cells): barely fluorescent
fluorescence intensity after three hours in fresh culture medium [1]: low fluorescent intensity

CC(C)CC(N)C(=O)Nc1ccc2c(c1)Oc1cc(NC(=O)C(N)CC(C)C)ccc1C21OC(=O)c2ccccc21 [bis-(L-leucine)-rhodamine 110, reference compound]
leakage of enzyme reaction product after staining (NIH/3T3 cells): substantial leakage
fluorescence after washing and several hours in fresh media (NIH/3T3 cells): no fluorescent signal
